Measured values reported in patent US8124637B2, “Anthra [1, 2-d]imidazole-6,11-dione derivatives, preparation method and application thereof” (National Defense Medical Center, priority 2010, dated 2012).

Columns and labels:
Type in all cases: cell-based, human
[1] = system: hTERT promoter (PhTERT) expression; test: SEAP assay (PhTERT-SEAP reporter, H1299); details: Homo sapiens, NCI-H1299, PhTERT-SEAP (H1299); for activity at 1 µM: read-out: Relative SEAP activity (%); for activity at 10 µM / activity at 100 µM: read-out: Relative SEAP activity (%) (converted)
Method: H1299 were grown in RPMI 1640 media supplemented with 10% fetal bovine serum, 100 units/mL penicillin and […] streptomycin in a humidified atmosphere with 5% CO2 at 37° C. Culture media were changed every three days. To establish stable cell lines that the expression of hTERT could be monitored by a reporter system, a about 3.3 kbp DNA fragment ranging from −3338 to +1 bp of the hTERT gene (hTERT promoter, PhTERT) was subcloned upstream to a secreted alkaline phosphatase gene (SEAP) and transfected into H1299 bp electroporation. The stable clones were selected using G418. The stable clones derived from H1299 were cultured using conditions that are similar to their parental cells.
Secreted alkaline phosphatase was used as the reporter system to monitor the transcriptional activity of hTERT. Here, about 10^4 cells each were grown in 96-well plates and incubated at 37° C. for 24 hours and changed with fresh media. Varying amounts of drugs were added and cells were incubated for another 24 hours. Culture media were collected and heated at 65° C. for 10 min to inactivate heat-labile phosphatases. An equal amount of SEAP buffer (2 M diethanolamine, 1 mM MgCl2, and 20 mM L-homoarginine) was added to the media and p-nitrophenyl phosphate was added to a final concentration of 12 mM. Absorptions at 405 nm were taken, and the rate of absorption increase is determined (the increasing rate of absorbance at 405 nm was used to represent the activity of SEAP).

OVCAR-3 = test: NCI 60-cell drug screen, one dose; details: Ovarian Cancer OVCAR-3, 1.00E−5 Molar
Method: (§1) In brief, cellular protein levels were determined after 48 hours of drug exposure by sulforhodamine B colorimetry.
(§2) The screening system in United State National Cancer Institute (NCI) consists of 60 kinds of different human cancer cells, which can be used to assay the growth-inhibiting ability or cell toxicity of a compound against various cancer and tumor at a certain concentration. The NCI had selected 6 compounds synthesized above, and performed cell toxicity assay against 60 kinds of cancer cell strains (Table 2) (DTP Human Tumor Cell Line Screen), in which each compound was assayed at a certain concentration to observe its inhibition ability or cell toxicity against various kinds of cancer and tumor.

HCT-15 = test: NCI 60-cell drug screen, one dose; details: Colon Cancer HCT-15, 1.00E−5 Molar
Method: as §1, §2

NCI-H226 = test: NCI 60-cell drug screen, one dose; details: Non-Small Cell Lung Cancer NCI-H226, 1.00E−5 Molar
Method: as §1, §2

TK-10 = test: NCI 60-cell drug screen, one dose; details: Renal Cancer TK-10, 1.00E−5 Molar
Method: as §1, §2

SF-539 = test: NCI 60-cell drug screen, one dose; details: CNS Cancer SF-539, 1.00E−5 Molar
Method: as §1, §2

U251 = test: NCI 60-cell drug screen, one dose; details: CNS Cancer U251, 1.00E−5 Molar
Method: as §1, §2

SN12C = test: NCI 60-cell drug screen, one dose; details: Renal Cancer SN12C, 1.00E−5 Molar
Method: as §1, §2

BT-549 = test: NCI 60-cell drug screen, one dose; details: Breast Cancer BT-549, 1.00E−5 Molar
Method: as §1, §2

786-0 = test: NCI 60-cell drug screen, one dose; details: Renal Cancer 786-0, 1.00E−5 Molar
Method: as §1, §2

SK-MEL-28 = test: NCI 60-cell drug screen, one dose; details: Melanoma SK-MEL-28, 1.00E−5 Molar
Method: as §1, §2

HL-60(TB) = test: NCI 60-cell drug screen, one dose; details: Leukemia HL-60(TB), 1.00E−5 Molar
Method: as §1, §2

NCI-H522 = test: NCI 60-cell drug screen, one dose; details: Non-Small Cell Lung Cancer NCI-H522, 1.00E−5 Molar
Method: as §1, §2

SK-OV-3 = test: NCI 60-cell drug screen, one dose; details: Ovarian Cancer SK-OV-3, 1.00E−5 Molar
Method: as §1, §2

EKVX = test: NCI 60-cell drug screen, one dose; details: Non-Small Cell Lung Cancer EKVX, 1.00E−5 Molar
Method: as §1, §2

MDA-MB-435 = test: NCI 60-cell drug screen, one dose; details: Melanoma MDA-MB-435, 1.00E−5 Molar
Method: as §1, §2

SNB-19 = test: NCI 60-cell drug screen, one dose; details: CNS Cancer SNB-19, 1.00E−5 Molar
Method: as §1, §2

LOX IMVI = test: NCI 60-cell drug screen, one dose; details: Melanoma LOX IMVI, 1.00E−5 Molar
Method: as §1, §2

OVCAR-4 = test: NCI 60-cell drug screen, one dose; details: Ovarian Cancer OVCAR-4, 1.00E−5 Molar
Method: as §1, §2

NCI-H460 = test: NCI 60-cell drug screen, one dose; details: Non-Small Cell Lung Cancer NCI-H460, 1.00E−5 Molar
Method: as §1, §2

NCI-H322M = test: NCI 60-cell drug screen, one dose; details: Non-Small Cell Lung Cancer NCI-H322M, 1.00E−5 Molar
Method: as §1, §2

COLO 205 = test: NCI 60-cell drug screen, one dose; details: Colon Cancer COLO 205, 1.00E−5 Molar
Method: as §1, §2

NCI-H23 = test: NCI 60-cell drug screen, one dose; details: Non-Small Cell Lung Cancer NCI-H23, 1.00E−5 Molar
Method: as §1, §2

HT29 = test: NCI 60-cell drug screen, one dose; details: Colon Cancer HT29, 1.00E−5 Molar
Method: as §1, §2

SK-MEL-2 = test: NCI 60-cell drug screen, one dose; details: Melanoma SK-MEL-2, 1.00E−5 Molar
Method: as §1, §2

HOP-62 = test: NCI 60-cell drug screen, one dose; details: Non-Small Cell Lung Cancer HOP-62, 1.00E−5 Molar
Method: as §1, §2

HS 578-T = test: NCI 60-cell drug screen, one dose; details: Breast Cancer HS 578-T, 1.00E−5 Molar
Method: as §1, §2

Row | Compound | activity at 1 µM [1] [%] | activity at 10 µM [1] [%] | activity at 100 µM [1] [%] | Growth Percent (OVCAR-3) [%] | Growth Percent (HCT-15) [%] | Growth Percent (NCI-H226) [%] | Growth Percent (TK-10) [%] | Growth Percent (SF-539) [%] | Growth Percent (U251) [%] | Growth Percent (SN12C) [%] | Growth Percent (BT-549) [%] | Growth Percent (786-0) [%] | Growth Percent (SK-MEL-28) [%] | Growth Percent (HL-60(TB)) [%] | Growth Percent (NCI-H522) [%] | Growth Percent (SK-OV-3) [%] | Growth Percent (EKVX) [%] | Growth Percent (MDA-MB-435) [%] | Growth Percent (SNB-19) [%] | Growth Percent (LOX IMVI) [%] | also measured
1 | CCN(CC)Cc1nc2ccc3c(c2[nH]1)C(=O)c1ccccc1C3=O [CL04, 2-((diethylamino)methyl)-1H-anthra[1,2-d]imidazole-6,11-dione] | 91.2 ± 4.38 | < 50 | 0.13 | 63.32 | 65.75 | 77.20 | 98.12 | 85.26 | 70.77 | 69.04 | 105.50 | 64.88 | 92.41 | 68.18 | 73.14 | 86.81 | 73.22 | 88.53 | 75.06 | 61.98 | Growth Percent (OVCAR-4): 65.69%; Growth Percent (NCI-H460): 55.50%; Growth Percent (NCI-H322M): 90.06%; Growth Percent (COLO 205): 81.00%; Growth Percent (NCI-H23): 75.96%; Growth Percent (HT29): 56.02%; Growth Percent (SK-MEL-2): 102.69%; Growth Percent (HOP-62): 85.27%; Growth Percent (HS 578-T): 70.37%
2 | CN(CCc1ccccn1)Cc1nc2ccc3c(c2[nH]1)C(=O)c1ccccc1C3=O [CL07, 2-((N-methyl-2-(pyridin-2-yl)ethanamino)methyl)-1H-anthra[1,2-d]imidazole-6,11-dione] | 96.5 ± 5.53 | < 50 | -3.16 | 83.57 | 80.78 | 81.36 | 130.74 | 102.32 | 81.83 | 91.19 | 114.38 | 89.74 | 97.01 | 120.08 | 86.39 | 106.7 | 82.24 | 93.53 | 87.77 | 89.67 | Growth Percent (OVCAR-4): 80.99%; Growth Percent (NCI-H460): 90.27%; Growth Percent (NCI-H322M): 102.29%; Growth Percent (COLO 205): 117.88%; Growth Percent (NCI-H23): 90.81%; Growth Percent (HT29): 84.18%; Growth Percent (SK-MEL-2): 95.03%; Growth Percent (HOP-62): 105.37%; Growth Percent (HS 578-T): 108.96%
3 | O=C1c2ccccc2C(=O)c2c1ccc1nc(CN3CCCCC3)[nH]c21 [CL16, 2-((piperidin-1-yl)methyl)-1H-anthra[1,2-d]imidazole-6,11-dione] | 75.8 ± 26.9 | < 50 | 6.78 | 66.26 | 54.20 | 78.85 | 115.68 | 82.47 | 72.67 | 96.96 | 109.47 | 62.88 | 107.08 | 56.89 | 84.14 | 92.54 | 77.14 | 102.02 | 76.33 | 62.99 | Growth Percent (OVCAR-4): 65.27%; Growth Percent (NCI-H460): 64.61%; Growth Percent (NCI-H322M): 92.47%; Growth Percent (COLO 205): 74.65%; Growth Percent (NCI-H23): 81.32%; Growth Percent (HT29): 61.38%; Growth Percent (SK-MEL-2): 113.29%; Growth Percent (HOP-62): 92.69%; Growth Percent (HS 578-T): 50.98%
4 | CN1CCN(Cc2nc3ccc4c(c3[nH]2)C(=O)c2ccccc2C4=O)CC1 [CL24, 2-((4-methylpiperazin-1-yl)methyl)-1H-anthra[1,2-d]imidazole-6,11-dione] | 106 ± 2.94 | 23.2 | 6.23 | 52.79 | 44.98 | 64.48 | 73.05 | 63.88 | 65.41 | 48.50 | 100.53 | 59.13 | 96.38 | 65.29 | 64.61 | 74.33 | 65.93 | 86.53 | 65.60 | 43.47 | Growth Percent (OVCAR-4): 50.98%; Growth Percent (NCI-H460): 57.35%; Growth Percent (NCI-H322M): 82.41%; Growth Percent (COLO 205): 53.66%; Growth Percent (NCI-H23): 72.97%; Growth Percent (HT29): 22.64%; Growth Percent (SK-MEL-2): 107.95%; Growth Percent (HOP-62): 60.84%; Growth Percent (HS 578-T): 51.48%
5 | O=C1c2ccccc2C(=O)c2c1ccc1nc(CN3CCN(c4ccccc4)CC3)[nH]c21 [CL27, 2-((4-phenylpiperazin-1-yl)methyl)-1H-anthra[1,2-d]imidazole-6,11-dione] | 92.23 ± 0.78 | 76.7 | 5.83 | 76.56 | 74.39 | 82.98 | 118.37 | 112.36 | 84.83 | 89.91 | 110.22 | 88.48 | 127.46 | 107.54 | 73.61 | 98.95 | 88.70 | 101.37 | 103.62 | 95.76 | Growth Percent (OVCAR-4): 67.72%; Growth Percent (NCI-H460): 94.45%; Growth Percent (NCI-H322M): 91.96%; Growth Percent (COLO 205): 128.37%; Growth Percent (NCI-H23): 92.11%; Growth Percent (HT29): 87.57%; Growth Percent (SK-MEL-2): 101.39%; Growth Percent (HOP-62): 98.40%; Growth Percent (HS 578-T): 80.56%
